Data reported in US6376175B1, “Methods of discovering chemicals capable of functioning as gene expression modulators” (OSI Pharmaceuticals, Inc., priority 1989, dated 2002).

Legend:
G-CSF promoter = assay: G-CSF promoter-luciferase induction by known inducers, clone G 1002 (5637 cells); assay type: cell-based, human
From the text: Cloning of G-CSF sequences is described in Experimental Details, section B-3. In order to correctly fuse the G-CSF upstream sequences to the luciferase start codon, oligonucleotides were synthesized which contain the G-CSF leader sequence from +15 to the ATG (32), and were cloned into pUC19 to create pGUC84 (FIG. 29). […] The G-CSF-oligonucleotide-containing NcoI/ScaI fragment from pGUC84 was then isolated and ligated to the luciferase-containing NcoI/ScaI fragment from pUV100 to create pGUV100 (FIG. 30). Following this, the PstI fragment of the G-CSF promoter was isolated form pJM710 (FIG. 7) and inserted into the PstI site in pGUV100 generating pGUV1(FIG. 31). The rest of the G-CSF promoter clone was added by ligating the G-CSF-luciferase containing SfiI/ScaI fragment from pGUV1 to the appropriate SfiI/ScaI fragment from pJM710, creating the plasmid pGUV2 (FIG. 32). The XbaI fragment from pGUV2 containing the G-CSF-luciferase fusion was then cloned into pUV103 previously digested with XbaI/SpeI, generating pGUV140 (FIG. 33). Finally, a TK-Neo cassette (Section C) was included by ligating the ScaI/XbaI fragment from pGUV140 which contains the G-CSF-luciferase fusion into pTKNEO103 previously digested with ScaI/XbaI, yielding the final vector pGUV150 (FIG. 34).
All the following constructs were transfected into 5637 bladder carcinoma cells either by electroporation using a BRL (Gaithersburg, Md.) Cellporator electroporation device or by lipofection using BRL lipofectin and following the manufacturer's protocol. For electroporation, cells were trypsinized, treated with Soybean trypsin inhibitor (1 mg/ml), washed three times in Dulbecco's modified Eagle's medium (DMEM) without pH indicator, and 1 ml of cell suspension in DMEM was electroporated at room temperature and at a cell density of 5 million cells per ml at a voltage of 250 V and a capacitance of 1180 microFarad with the electroporation device set at low resistance. In previous experiments these parameters had been determined to result in optimal electroporation efficiency. About 15 min after electroporation cells were recovered from the disposable electroporation containers (BRL, Gaithersburg, Md.) and plated in RPMI containing 10% fetal calf serum. 2 days after electroporation 0.4 mg/ml G 418 were added and clonal cell colonies were picked 14-20 days after transfection. Clones were first analysed for luciferase expression using Lysis Buffer 1 without bovine serum albumin (see Section F) and those testing positive expanded further and frozen in liquid nitrogen. Further analysis of 6 clones (G 1002, G 2005, G 2071, G 2085, G 3014, G3031) included Southern blotting, reaction to known inducers, satisfactory attachment to microtiter plates and acceptable standard deviation in multiple luciferase expression assays. Clones G 2005 and G 2085 were derived from 5637 cells lipofected with 100 ug/ml of linearized pGVU150 (FIG. 34), G 3031 descends from cells electroporated with 100 ug/ml of linearized pGVU150, whereas 200 ug/ml of the same plasmid were used to generate G 3014. Cotransfection of circular pGVU140 (FIG. 33) with circular pTKNeo3 (FIG. 19) was used to generate clones G 1002 and G 2071. While G 1002 resulted from co-electroporation of 50 and 5 ug/ml of the two plasmids, G 2071 descends from cells lipofected with 100 and 10 ug.
Cell clones with correctly integrated promoter/reporter constructs were analysed for correct reaction to known transcriptional inducers. […] Both TNF-alpha- and PMA-induction levels of clone G 1002 were influenced by the presence or absence of epidermal growth factor (EGF). […] The 9.3fold induction by PMA in the absence of EGF was reduced to 5.6fold by including EGF in the serum-free incubation mixture. Similar differences were observed, when EGF was substituted by 10% fetal calf serum.

GM-CSF promoter = assay: GM-CSF promoter-luciferase induction by known inducers, clones GM 1073, GM 1088, GM 1105; assay type: cell-based, human; details: for luciferase expression induction, clone 1088: GM-CSF reporter clone GM 1088; for luciferase expression induction, clone 1105: GM-CSF reporter clone GM 1105
Experimental: All routine subcloning procedures were performed as described by Maniatis et al. (1982), (28) unless otherwise noted. The about 0.7 kb HindIII/RsaI fragment of the GM-CSF clone (FIG. 20) was inserted into pUC 18 previously digested with HindIII/HincII. The about 0.7 kb HindIII/SmaI fragment was then isolated from the resulting vector and cloned into pUV 100 digested previously with HindIII/SnaBI, thereby generating pGMLUCI (FIG. 22.) In order to correctly fuse the GM-CSF ATG with the coding region of luciferase, four oligonucleotides (FIG. 21) were synthesized, phosphorylated, annealed, ligated, and inserted into pUC19 previously digested with Eco RI/XbaI, generating pGM-1 (FIG. 22). pGM-1 was then sequences (Sequenase Kit, US Biochemicals, Cleveland, Ohio) using the M13 forward (U.S. Biochem.) and reverse primers (Pharmacia, Piscataway, N.J.) to ensure that there were no mutations in the synthesized oligonucleotides. The about 1.8 kb BstEII/ScaI fragment from pGM-1 was then isolated and ligated to about 1.5 kb BstEII/ScaI fragment from pGMLUCI to generate pGM-2 (FIG. 22). pGM-2 was then digested with Hind III/XbaI and about 0.7 kb fragment was cloned into pUV 102 and pUV 103 previously digested with HindIII/XbaI. This generated pGMLS102 and pGMLS103 (FIG. 22), which contain 663 bp of GM-CSF sequence 5′ of the ATG fused directly to the second (correct) ATG of luciferase and the rest of the luciferase coding region. An additional about 1.4 kb of upstream sequences were cloned into this construct by isolating the about 1.4 kb SalI/HindIII fragment from the GM-CSF clone (FIG. 20), blunting the SalI end by filling in with Klenow polymerase, and inserting the fragment into pGMLS102 and pGMSL103 previously digested with HindIII/SnaBI. This step generated pGMLL102 and PGMLL103, respectively (FIG. 23). Finally, the pTKNEO2 and PTKNEO3 about 1.8 kb SfiI fragments were cloned directly into the SfiI site of pGMLL103 to generated pGMLL103 NEO2 and pGMLL103 NEO3.
6 clones generated by electroporation with pGMLL103 NEO3 (FIG. 23; Materials and Methods, section D.2) were subjected to further analysis as described above: GM 1073 (10 ug; circular); GM 1081, 1088 and 1090 (5 ug; linear); and GM 1098 and 1105 (10 ug; linear).
Promoter induction experiments were also conducted with the GM-CSF reporter cell lines GM 1073, GM 1088 and GM 1105, which were all shown to contain correctly inserted constructs (see above). […] Luciferase expression of clones 1088 and 1105 was induced by PMA 2.8 fold and 2 fold, respectively, while TNF-alpha induced both clones 2 fold.

[1] = 7-hour incubation, serum-free defined media with 20 ng/ml EGF
[2] = 7-hour incubation, serum-free defined media, absence of EGF
[3] = 10.5 hours, serum-containing media, 8.3 ng/ml TNF-alpha, 20 ng/ml PMA, 0.5 ng/ml Interleukin-1 beta, or mixtures as labelled

Row | Compound | G-CSF promoter induction, clone G 1002 (G-CSF promoter; [1]) | G-CSF promoter induction, clone G 1002 (G-CSF promoter; [2]) | G-CSF promoter induction, clone G 1002 (G-CSF promoter; [3]) | GM-CSF promoter induction, GM 1073 cells (GM-CSF promoter; 10.5 hours, 20 ng/ml PMA, serum-containing media) | luciferase expression induction, clone 1088 (GM-CSF promoter) | luciferase expression induction, clone 1105 (GM-CSF promoter) | GM-CSF promoter induction, GM 1073 cells (GM-CSF promoter; PMA, serum-free media)
1 | CCCCCCCCCCCCCC(=O)O[C@@H]1[C@@H](C)[C@@]2(O)[C@@H](C=C(CO)C[C@]3(O)C(=O)C(C)=C[C@@H]23)[C@@H]2C(C)(C)[C@]12OC(C)=O [PMA, phorbo-myristate-acetate, reference compound] | 5.6 fold | 9.3 fold | 4.4 fold | 3.4 fold | 2.8 fold | 2 fold | 7.5 fold
2 | TNF-alpha | 3 fold | 4 fold | 2 fold |  | 2 fold | 2 fold | 
